According to PubChem BioAssay AID248 (DTP/NCI, 2004):
Values joined by “and” are separate entries in the source; they are usually repeats but may differ in a detail not shown here. Equal entries are not always repeated. Toxic doses and inconclusive results are not listed.

Test system: L1210 leukemia ip in BDF1 mice, survival T/C
Test: NCI In Vivo Anticancer Drug Screen. Data for tumor model L1210 Leukemia (intraperitoneal) in B6D2F1 (BDF1) mice
Settings: endpoint: mean survival time, higher = longer survival
Outline: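 Tumor was transplanted into mice, which were then dosed with test compound or vehicle alone. Survival was recorded for each group, and the treated figure was expressed relative to the control figure.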

With `CC(=O)OCC1OC(n2ccc(N)nc2=O)C(OC(C)=O)C1OC(C)=O` (stereo not given) the T/C (dose: 6.3 mg/kg/injection, schedule: Q01DX015 (oral), vehicle: carboxymethylcellulose (CMC)) was 117 % of control, the T/C (dose: 6.6 mg/kg/injection, schedule: Q03HX024 (ip), vehicle: carboxymethylcellulose (CMC)) was 156 % of control and the T/C (dose: 10.0 mg/kg/injection, schedule: Q01DX015 (ip), vehicle: saline) was 101 % of control. For the same compound, the T/C (dose: 11.0 mg/kg/injection, schedule: Q03HX008 (ip), vehicle: carboxymethylcellulose (CMC)) was 121 % of control, the T/C (dose: 11.0 mg/kg/injection, schedule: Q03HX024 (ip), vehicle: carboxymethylcellulose (CMC)) was 184 % of control and the T/C (dose: 12.5 mg/kg/injection, schedule: Q01DX015 (oral), vehicle: carboxymethylcellulose (CMC)) was 116 % of control. For the same compound, the T/C (dose: 15.0 mg/kg/injection, schedule: Q01DX015 (ip), vehicle: saline) was 117 % of control, the T/C (dose: 18.0 mg/kg/injection, schedule: Q03HX024 (ip), vehicle: carboxymethylcellulose (CMC)) was 207 % of control and the T/C (dose: 23.0 mg/kg/injection, schedule: Q01DX015 (ip), vehicle: saline) was 124 % of control. The T/C (dose: 25.0 mg/kg/injection, schedule: Q01DX015 (oral), vehicle: carboxymethylcellulose (CMC)) was 122 % of control, the T/C (dose: 30.0 mg/kg/injection, schedule: Q03HX024 (ip), vehicle: carboxymethylcellulose (CMC)) was 246 % of control and the T/C (dose: 35.0 mg/kg/injection, schedule: Q01DX015 (ip), vehicle: saline) was 150 % of control and 168 % of control. The T/C (dose: 37.0 mg/kg/injection, schedule: Q01DX009 (oral), vehicle: water) was 123 % of control, the T/C (dose: 37.0 mg/kg/injection, schedule: Q## X024 (oral), vehicle: water) was 100 % of control and the T/C (dose: 50.0 mg/kg/injection, schedule: Q01DX009 (ip), vehicle: saline) was 153 % of control. The T/C (dose: 50.0 mg/kg/injection, schedule: Q01DX009 (ip), vehicle: water) was 171 % of control, the T/C (dose: 50.0 mg/kg/injection, schedule: Q01DX009 (sc), vehicle: water) was 158 % of control and the T/C (dose: 51.0 mg/kg/injection, schedule: Q01DX009 (ip), vehicle: carboxymethylcellulose (CMC)) was 180 % of control. For the same compound, the T/C (dose: 51.0 mg/kg/injection, schedule: Q03HX008 (ip), vehicle: carboxymethylcellulose (CMC)) was 157 % of control, the T/C (dose: 55.0 mg/kg/injection, schedule: Q01DX015 (ip), vehicle: saline) was 201 % of control and the T/C (dose: 75.0 mg/kg/injection, schedule: Q01DX005 (oral), vehicle: water) was 121 % of control. For the same compound, the T/C (dose: 75.0 mg/kg/injection, schedule: Q01DX009 (oral), vehicle: water) was 117 % of control, the T/C (dose: 86.0 mg/kg/injection, schedule: Q01DX009 (ip), vehicle: carboxymethylcellulose (CMC)) was 213 % of control and the T/C (dose: 100.0 mg/kg/injection, schedule: Q01DX005 (ip), vehicle: saline) was 154 % of control and 164 % of control. For the same compound, the T/C (dose: 100.0 mg/kg/injection, schedule: Q01DX009 (ip), vehicle: saline) was 222 % of control, the T/C (dose: 100.0 mg/kg/injection, schedule: Q01DX009 (ip), vehicle: water) was 235 % of control and the T/C (dose: 100.0 mg/kg/injection, schedule: Q01DX009 (sc), vehicle: water) was 205 % of control. The T/C (dose: 100.0 mg/kg/injection, schedule: Q01DX011 (oral), vehicle: water) was 156 % of control and 175 % of control, the T/C (dose: 125.0 mg/kg/injection, schedule: Q01DX015 (ip), vehicle: saline) was 314 % of control and the T/C (dose: 150.0 mg/kg/injection, schedule: Q01DX001 (ip), vehicle: water) was 114 % of control. The T/C (dose: 150.0 mg/kg/injection, schedule: Q01DX001 (sc), vehicle: water) was 150 % of control, the T/C (dose: 150.0 mg/kg/injection, schedule: Q01DX005 (oral), vehicle: water) was 112 % of control and the T/C (dose: 150.0 mg/kg/injection, schedule: Q## X003 (oral), vehicle: water) was 120 % of control. The T/C (dose: 150.0 mg/kg/injection, schedule: Q## X024 (oral), vehicle: water) was 104 % of control and 113 % of control, the T/C (dose: 200.0 mg/kg/injection, schedule: Q01DX005 (ip), vehicle: saline) was 190 % of control and 198 % of control and the T/C (dose: 200.0 mg/kg/injection, schedule: Q01DX009 (ip), vehicle: saline) was 109 % of control. The T/C (dose: 200.0 mg/kg/injection, schedule: Q01DX009 (ip), vehicle: water) was 88 % of control, the T/C (dose: 200.0 mg/kg/injection, schedule: Q01DX009 (sc), vehicle: water) was 95 % of control and the T/C (dose: 200.0 mg/kg/injection, schedule: Q01DX011 (oral), vehicle: water) was 201 % of control. For the same compound, the T/C (dose: 250.0 mg/kg/injection, schedule: Q01DX001 (ip), vehicle: saline) was 116 % of control, the T/C (dose: 250.0 mg/kg/injection, schedule: Q01DX015 (ip), vehicle: saline) was 86 % of control and the T/C (dose: 300.0 mg/kg/injection, schedule: Q01DX001 (ip), vehicle: water) was 118 % of control. The T/C (dose: 300.0 mg/kg/injection, schedule: Q01DX001 (oral), vehicle: water) was 103 % of control and 108 % of control, the T/C (dose: 300.0 mg/kg/injection, schedule: Q01DX005 (oral), vehicle: water) was 184 % of control and the T/C (dose: 300.0 mg/kg/injection, schedule: Q01DX009 (oral), vehicle: water) was 167 % of control. The T/C (dose: 300.0 mg/kg/injection, schedule: Q07DX004 (oral), vehicle: water) was 103 % of control, the T/C (dose: 300.0 mg/kg/injection, schedule: Q## X006 (oral), vehicle: water) was 108 % of control and the T/C (dose: 300.0 mg/kg/injection, schedule: Q## X008 (oral), vehicle: water) was 112 % of control. The T/C (dose: 300.0 mg/kg/injection, schedule: Q## X024 (oral), vehicle: water) was 113 % of control, the T/C (dose: 400.0 mg/kg/injection, schedule: Q01DX011 (oral), vehicle: water) was 179 % of control and the T/C (dose: 600.0 mg/kg/injection, schedule: Q01DX001 (oral), vehicle: water) was 108 % of control and 114 % of control. The T/C (dose: 600.0 mg/kg/injection, schedule: Q01DX005 (oral), vehicle: water) was 153 % of control, the T/C (dose: 600.0 mg/kg/injection, schedule: Q01DX009 (oral), vehicle: water) was 185 % of control and the T/C (dose: 600.0 mg/kg/injection, schedule: Q07DX004 (oral), vehicle: water) was 107 % of control. The T/C (dose: 600.0 mg/kg/injection, schedule: Q## X003 (oral), vehicle: water) was 153 % of control, the T/C (dose: 600.0 mg/kg/injection, schedule: Q## X006 (oral), vehicle: water) was 114 % of control and the T/C (dose: 600.0 mg/kg/injection, schedule: Q## X024 (oral), vehicle: water) was 120 % of control. For the same compound, the T/C (dose: 660.0 mg/kg/injection, schedule: Q04DX003 (ip), vehicle: carboxymethylcellulose (CMC)) was 214 % of control, the T/C (dose: 800.0 mg/kg/injection, schedule: Q01DX011 (oral), vehicle: water) was 121 % of control and the T/C (dose: 1000.0 mg/kg/injection, schedule: Q01DX001 (ip), vehicle: saline) was 164 % of control. For the same compound, the T/C (dose: 1099.0 mg/kg/injection, schedule: Q01DX001 (ip), vehicle: carboxymethylcellulose (CMC)) was 160 % of control, the T/C (dose: 1099.0 mg/kg/injection, schedule: Q04DX003 (ip), vehicle: carboxymethylcellulose (CMC)) was 244 % of control and the T/C (dose: 1200.0 mg/kg/injection, schedule: Q01DX001 (oral), vehicle: water) was 115 % of control and 121 % of control. The T/C (dose: 1200.0 mg/kg/injection, schedule: Q01DX005 (oral), vehicle: water) was 153 % of control and 180 % of control, the T/C (dose: 1200.0 mg/kg/injection, schedule: Q01DX015 (oral), vehicle: carboxymethylcellulose (CMC)) was 100 % of control and the T/C (dose: 1200.0 mg/kg/injection, schedule: Q07DX004 (oral), vehicle: water) was 119 % of control. The T/C (dose: 1200.0 mg/kg/injection, schedule: Q## X003 (oral), vehicle: water) was 185 % of control, the T/C (dose: 1832.0 mg/kg/injection, schedule: Q01DX001 (ip), vehicle: carboxymethylcellulose (CMC)) was 156 % of control and the T/C (dose: 1832.0 mg/kg/injection, schedule: Q04DX003 (ip), vehicle: carboxymethylcellulose (CMC)) was 228 % of control. For the same compound, the T/C (dose: 2400.0 mg/kg/injection, schedule: Q01DX001 (oral), vehicle: water) was 109 % of control, the T/C (dose: 2400.0 mg/kg/injection, schedule: Q07DX004 (oral), vehicle: water) was 123 % of control and the T/C (dose: 2400.0 mg/kg/injection, schedule: Q## X003 (oral), vehicle: water) was 189 % of control. For the same compound, the T/C (dose: 2400.0 mg/kg/injection, schedule: Q## X006 (oral), vehicle: water) was 181 % of control.

For `CCCCCCCCCCCCCCCCCC(=O)Nc1ccc(OC(=O)NC)cc1`, the T/C (dose: 100.0 mg/kg/injection, schedule: Q01DX009 (ip), vehicle: Klucel (hydroxypropylcellulose) (HPC)) was 93 % of control and the T/C (dose: 200.0 mg/kg/injection, schedule: Q01DX009 (ip), vehicle: Klucel (hydroxypropylcellulose) (HPC)) was 88 % of control.
